Measurements from US20100159496A1, “EVALUATION METHOD FOR PHOTOSYNTHESIS SAMPLE, EVALUATION SYSTEM FOR PHOTOSYNTHESIS SAMPLE, AND EVALUATION PROGRAM FOR PHOTOSYNTHESIS SAMPLE” (HAMAMATSU PHOTONICS K.K., priority 2006, published 2010).

Tested on: green algae
Experiment: Delayed luminescence of green algae in different redox states (first/second excitation light, waiting time), integration values
Format: cell-based, Pseudokircheneriella subcapitata
Settings: for percentage (% oQ) of the oxidized plastoquinone: DBMIB 322 μg/L (FIG. 43)
Source text: In determining the relationship between the waiting time and the temporal variation of delayed luminescence, first, white light of 500 μmol·m−2·s−1 was illuminated for 10 seconds onto the measurement sample as the first excitation light for saturating photosynthetic electron transport (first illumination condition). Thereafter, a step of not illuminating light onto the measurement sample (referred to hereinafter as “waiting”) was provided and then red light of 50 μmol·m−2·s−1 was illuminated for 2 seconds as the second excitation light. The second excitation light can make delayed luminescence be emitted while hardly changing the redox state of the photosynthetic sample. Such a process is performed repeatedly with the waiting being changed to 0, 2, 10, 30, and 60 seconds. In addition, measurement is also made for a case where the illumination of the first excitation light and waiting are not executed and just the illumination of the second excitation light is performed, that is, for the case where the photosynthetic electron transport is not saturated.
In the following, a case of computing an integration value for each of an integration range (measurement time period) of 0.1 to 0.5 seconds of time after excitation, an integration range of 0.6 to 10 seconds after excitation, and an integration range of 10.1 seconds to 50 seconds after excitation shall be described. Setting of the integration ranges is not restricted to the above. The number of integration ranges may any number as long as it is no less than 1. In a case where a plurality of integration ranges are set up, the respective integration ranges may be made equal or not equal in time width. Furthermore, the integration ranges may not only be mutually set apart by a predetermined time as in the present embodiment but integration ranges may be set so as to be adjacent each other (for example, an integration range of 0.1 to 0.5 seconds of time after excitation and an integration range of 0.5 seconds to 10 seconds of time after excitation may be set up) and integration ranges may be set so as to overlap with each other (for example, an integration range of 0.1 to 0.5 seconds of time after excitation and an integration range of 0.4 seconds to 10 seconds of time after excitation may be set up).
In each graph of FIG. 29, the abscissa expresses the measurement condition and the ordinate expresses the integration value (counts) of the delayed luminescence intensity. In the following, the integration value in the integration range of 0.1 to 0.5 seconds of time after excitation, the integration value in the integration range of 0.6 to 10 seconds after excitation, and the integration value in the integration range of 10.1 seconds to 50 seconds after excitation shall be referred to respectively as integration value 1, integration value 2, and integration value 3. FIGS. 29A, 29B, and 29C are graphs respectively of the integration value 1, integration value 2, and integration value 3.
First, a method for computing an evaluation value for evaluating the electron accumulation state of the PSII of the photosynthetic sample shall be described. As one such type of evaluation value, there is, for example, a PSII electron accumulation change (en), which indicates how the electron accumulation in the PSII has changed. This value ell can be determined as: (integration value 1 of the evaluation sample)/(integration value 1 of the standard sample)×100. The PSII electron accumulation change (eII) can be computed for the respective conditions of non-saturation, 0-second waiting time, 10-second waiting time, and 60-second waiting time.
As mentioned above, the transient increase of the integration value 1 in the 0-second waiting time reflects increase of the electron accumulation in the PSII due to the takeout of electrons from the PSII becoming rate-limiting. […]

[1] = all conditions (non-saturation, 0-, 10-, 60-second waiting time), DCMU 12 ug/L, Ant-A 0.55 mg/L

CCCCCC[C@H]1C(=O)O[C@H](C)[C@H](NC(=O)c2cccc(NC=O)c2O)C(=O)O[C@@H](C)[C@@H]1OC(=O)CC(C)C [Ant-A, Antimycin A]
integration value 1 (0.1 to 0.5 seconds after excitation) (10-second waiting time, Ant-A 0.55 mg/L): increased in the same manner as in the 0-second waiting time case
cyclic electron transport (cI) from the PSI (10-second waiting time, Ant-A 0.55 mg/L (FIG. 44)): −12
integration value 2 (0.6 to 10 seconds after excitation) compared with standard sample [1]: less than those of the standard sample
integration value 3 (10.1 to 50 seconds after excitation) compared with standard sample [1]: less than those of the standard sample
PSI electron accumulation change (eI) (non-saturation case, Ant-A 0.55 mg/L, integration value 3 of evaluation sample/standard sample×100 (FIG. 44)): 89
integration value 1 (0.1 to 0.5 seconds after excitation) compared with standard sample (non-saturation, 0-second and 60-second waiting time, Ant-A 0.55 mg/L): a large difference was not seen

CC1=C(Br)C(=O)C(C(C)C)=C(Br)C1=O [DBMIB, 2,5-dibromo-6-isopropyl-3-methyl-1,4-benzoquinone]
integration value 2 (0.6 to 10 seconds after excitation) compared with standard sample (0-second waiting time, DBMIB 322 μg/L): a large difference is not seen
percentage (% oQ) of the oxidized plastoquinone (10-second waiting time): 4
increase (increment) of integration value 3 at the 10-second waiting time compared with standard sample (10-second waiting time, DBMIB 322 μg/L, Ant-A 0.55 mg/L): lower than that of the standard sample
percentage (% oQ) of the oxidized plastoquinone (60-second waiting time): 22
change (vQ) of redox reaction magnitude sQ (DBMIB 322 μg/L, sQ of evaluation sample/sQ of standard sample (FIG. 43)): 30
integration value 1 (0.1 to 0.5 seconds after excitation) compared with standard sample (all conditions, DBMIB 322 μg/L): greater than those of the standard sample
integration value 3 (10.1 to 50 seconds after excitation) compared with standard sample (non-saturation, 0-second and 60-second waiting time, DBMIB 322 μg/L): a large difference was not seen
integration value 2 (0.6 to 10 seconds after excitation) compared with standard sample (non-saturation, 10-second and 60-second waiting time, DBMIB 322 μg/L): lower than that of the standard sample

CN(C)C(=O)Nc1ccc(Cl)c(Cl)c1 [DCMU, 3-(3,4-dichlorophenyl)-1,1-dimethyl-urea]
integration value 1 (0.1 to 0.5 seconds after excitation) compared with standard sample (0-second waiting time, DCMU 12 ug/L): a significant difference was not seen
PSII electron takeout change (vII) (DCMU 12 ug/L, tII of evaluation sample/tII of standard sample×100 (FIG. 42)): negative
integration value 2 (0.6 to 10 seconds after excitation) compared with standard sample [1]: less than those of the standard sample
integration value 3 (10.1 to 50 seconds after excitation) compared with standard sample [1]: less than those of the standard sample
PSII electron accumulation change (eII) (non-saturation state, DCMU 12 ug/L, integration value 1 of evaluation sample/standard sample×100 (FIG. 42)): 188
integration value 1 (0.1 to 0.5 seconds after excitation) compared with standard sample (non-saturation, 10-second and 60-second waiting time, DCMU 12 ug/L): nearly twice the values of the standard sample
